Like-named read-outs stand apart in the source and are kept apart here.
Tests used:
[1] = tested on: Yap phosphorylation in HEK293A cells; test: cellular assay of Yap phosphorylation (ratio of pYap to tYap in homogenates from treated cells); assay type: cell-based; settings: HEK293-A
[2] = target: T1, LATS1 (Homo sapiens, UniProt O95835); test: in vitro Lats kinase assay (enzymological assay); assay type: biochemical; settings: for true inhibitory activities: implied, Lats concentration 555 pM in the assay, affinities at or below lower limit of accurate quantification
T1 sequence (O95835 589-1130 limits assumed): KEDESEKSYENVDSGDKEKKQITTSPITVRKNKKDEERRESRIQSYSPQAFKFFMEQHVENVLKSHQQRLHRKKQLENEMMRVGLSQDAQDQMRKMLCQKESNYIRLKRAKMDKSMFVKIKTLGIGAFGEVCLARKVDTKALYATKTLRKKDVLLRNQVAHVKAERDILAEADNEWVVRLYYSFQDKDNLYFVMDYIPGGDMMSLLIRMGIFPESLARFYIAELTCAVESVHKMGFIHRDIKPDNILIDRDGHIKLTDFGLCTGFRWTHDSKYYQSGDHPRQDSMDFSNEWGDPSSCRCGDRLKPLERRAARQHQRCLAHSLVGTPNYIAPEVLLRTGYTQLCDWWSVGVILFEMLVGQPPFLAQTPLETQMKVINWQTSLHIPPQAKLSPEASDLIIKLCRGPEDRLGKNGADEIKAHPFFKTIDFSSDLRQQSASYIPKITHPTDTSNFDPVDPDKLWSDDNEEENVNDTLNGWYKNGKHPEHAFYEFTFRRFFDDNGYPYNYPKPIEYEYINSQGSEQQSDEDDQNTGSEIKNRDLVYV

[3] = human liver microsome stability; assay type: in vitro ADME; parameters: unit not given here
Source text: (§1) Fig. 1. […] HLM, human liver microsome; MLM, mouse liver microsome.

[4] = tested on: Müller glia in human retinal organoids; test: proliferation of Müller glia in human retinal organoids (EdU/Sox9); assay type: cell-based
Source text: (§2) Fig. 2. […] Each sample includes five organoids; β-actin serves as a loading control.
(§3) The supernatants were filtered and the lysates
(§4) The proteins were transferred to a PVDF
(§5) The extent of proliferation was […]

[5] = mouse liver microsome stability; assay type: in vitro ADME; parameters: unit not given here
Source text: as §1

[6] = tested on: supporting cells of the internal ear; parameters: method as in PMID 34035288; settings: in vitro; cited from earlier work
[7] = tested on: human retinal organoids; test: apoptosis in human retinal organoids (activated caspase 3 labeling); settings: 10 μM TRULI or 3 μM TDI-011536
Source text: Control experiments relating to gene expression in retinal organoids. (A) Although
increased b-actin concentrations in mitotically active cells.
extensive proliferation of Müller cells marked with Sox2 (green), as signaled by labeling with
arrowheads). DAPI (blue) marks all the nuclei.

[8] = tested on: Yap phosphorylation in human retinal organoids; test: Yap phosphorylation in human retinal organoids (immunoblot pYap/tYap); assay type: cell-based; settings: 3 μM, 24 h, vs DMSO controls
Source text: as §2, §3, §4, §5

[9] = tested on: cardiomyocytes; test: EdU incorporation in hearts of mice after right-ventricle cryolesion; assay type: in vivo, mouse
Source text: Cardiomyocytes ordinarily display little or no proliferation in mature mammals; instead, cardiac lesions in mice evoke scarring ([18]). To ascertain whether TDI-011536 restores a capacity for proliferation, we therefore examined the effect of systemic administration of the compound on damaged hearts in mice. After optimizing the surgical approach and establishing an appropriate dosage regime, we conducted eight experiments on male 8-week-old mice. In each instance, we used a metal probe cooled in liquid nitrogen to create a small cryolesion on the right ventricle ([18]).
In 33 images from 13 sections from the hearts of the two animals treated with TDI-011536 for 3 d, the average density of EdU labeling was 17.0 ± 3.5 μm^−2 (mean ± SD; SI Appendix, Table S3). By contrast, 28 images from 12 sections from controls yielded a labeling density of 5.6 ± 2.1 μm^−2 (mean ± SD; SI Appendix, Table S4). Because the values for the two control samples were not statistically different, those data were combined. […] Combining the experimental results as well yielded an overall significance of P < 10^−21 (SI Appendix, Fig. S5). […]
Cryolesioning of the murine right ventricle
Cardiac lesions were produced by a variant of a published method (6). Twenty minutes before surgery, an adult Swiss Webster mouse (Charles River Laboratories) four or eight weeks of age and of either sex was given buprenorphine subcutaneously at a dosage of 100 µg/kg for analgesia. The animal was anesthetized with 100 mg/kg of ketamine and 5 mg/kg of xylazine administered intraperitoneally in sterile water. The animal's mid-ventrum was shaved, chemically depilitated, and sterilized with a povidine-iodine swab. The area of the skin incision was infiltrated intradermally with 1 mg/kg of bupivacaine. Subsequent procedures were conducted beneath a surgical microscope and under sterile conditions in a HEPA-filtered, […]
With the animal supine on a thermostatted heating pad at 40 °C, an oblique, 15 mm-long incision was made from the xiphoid process parallel to the left lower costal margin and about 3 mm caudal to it. After the abdominal musculature and peritoneum had been transected with scissors in the same pattern, a miniature retractor was introduced to separate the two […]
sides of the incision. This approach exposed the upper margin of the liver and provided a view of the beating heart and the base of the left lung through the transparent diaphragm.
A cryolesion of the right ventricle was created with a round aluminum rod of mass 1.44 g secured to a plastic handle. A total of 76 mm in length, the rod was 3.2 mm in diameter over a distance of 59 mm at the base and 2.15 mm in diameter over the 17 mm at the tip. […]

[10] = tested on: Yap phosphorylated at residue S127 (pYap); test: in vivo Lats inhibition: immunoblot of pYap and tYap in heart, liver and skin after intraperitoneal injection
Description: The compound was dissolved in Kolliphor HS 15, a vehicle that was also injected into control animals.
Engagement of target organs in vivo. (A) Immunoblots portray the amounts of Yap phosphorylated at residue S127 (pYap) and the total amounts of Yap (tYap) in the liver, heart, and skin. […] Glyceraldehyde 3-phosphate dehydrogenase (Gapdh) is included in each instance as a loading control.
We compared the original 200 mg/kg dose to injections of 100 mg/kg and 50 mg/kg.
procedures involved Swiss Webster mice (Charles River Laboratories) of both sexes and were conducted with the approval of Rockefeller University's Institutional Animal Care and Use Committee. Within each experiment, animals were age- and sex-matched and were randomly assigned to treated and control groups.
each day of treatment, an animal received a single intraperitoneal injection of the mixture to
In the principal experiment with a dosage of 100 mg/kg, or 20 mL/kg, a typical animal of mass 30 g received an injection of 0.6 mL of
Fifty milligrams of heart, liver, or skin tissue was lysed on ice in radioimmunoprecipitation-assay
After remaining on ice for 30 min, the samples were sonicated at low power for 2 min with 10 s exposures separated by 10 s interruptions, then
The supernatants were filtered and the lysates were immediately subjected to electrophoresis or stored at -80 °C.
A standard immunoblotting protocol was used. After lysates had been prepared, 10 mg
gradient bis-tris gel (NP0322, Thermo Fisher). The proteins were transferred to a PVDF
(ab8245, Abcam), which were reconstituted at a dilution of 1:1000 in blocking solution. After a
Secondary antibodies conjugated to horseradish peroxidase (W401B and W402B, Promega) were applied at a dilution of 1:10,000 in the same solution for one hour at room temperature
were acquired with an iBright FL1000 system (Invitrogen).

[11] = tested on: Yap target genes; test: RNA sequencing of livers and hearts after injection; assay type: in vivo, mouse
[12] = tolerability of intraperitoneal dosing in mice
Source text: Assays of Lats kinase inhibition
assigned to treated and control groups.
Measurement of in vivo Lats inhibition

[13] = heart, 4 h after 200 mg/kg, ± SEM, three measurements
[14] = liver, 4 h after 200 mg/kg, ± SEM, three measurements

Question: For `Cc1cn(Cc2ccccc2)/c(=N/C(=O)c2c[nH]c3ncccc23)s1` [TDI-011214], which EC50 ([1]; read-out: pYAP EC50) is on record?
Answer: Its EC50 is 3.14 µM.

Question: What about the IC50 [2] of the same compound?
Answer: Its IC50 is 0.224 µM.

Question: Which HLM activity [3] does the source give for `O=C(/N=c1\sccn1Cc1ccccc1)c1c[nH]c2ncccc12` [TRULI, reference compound] here?
Answer: Its HLM activity is 200.

Question: What about the “increase in the number of Sox9-positive Müller glia that incorporated EdU” value ([4]; 10 μM, 5-d treatment) of the same compound?
Answer: The value was “almost fivefold”.

Question: What about the MLM activity [5] of the same compound?
Answer: Its MLM activity is 303.

Question: And the “mitosis in supporting cells of the organ of Corti” value [6]?
Answer: Its value is “fails to elicit such a response”.

Question: What about the “mitosis in supporting cells of the utricle” value [6] of the same compound?
Answer: Its value is “robust mitosis”.

Question: And the EC50 ([1]; read-out: pYAP EC50)?
Answer: Its EC50 is 0.586 µM.

Question: And the “apoptosis by labeling for activated caspase 3” value [7]?
Answer: The value was “little apoptosis”.

Question: Which HLM activity [3] does the source give for `Cc1cs/c(=N\C(=O)c2c[nH]c3ncccc23)n1Cc1ccccc1` [TDI-011241] here?
Answer: The HLM activity was 224.

Question: And the MLM activity [5]?
Answer: The MLM activity was 358.

Question: What about the EC50 ([1]; read-out: pYAP EC50) of the same compound?
Answer: The EC50 was 0.107 µM.

Question: And the IC50 [2]?
Answer: The IC50 was 0.00096 µM.

Question: What about the true inhibitory activities [2] of the same compound?
Answer: Its true inhibitory activities is “lower than 1 nM”.

Question: Which HLM activity [3] does the source give for `O=C(/N=c1\scc(CO)n1Cc1ccccc1)c1c[nH]c2ncccc12` [TDI-011536] here?
Answer: Its HLM activity is 36.

Question: What about the “reduction in Yap phosphorylation (ratio of pYap to tYap)” value [8] of the same compound?
Answer: The value was about 80%.

Question: What about the “increase in the number of cells doubly positive for EdU and Sox9” value ([4]; 3 μM, 5 d treatment) of the same compound?
Answer: The value was “tenfold”.

Question: What about the MLM activity [5] of the same compound?
Answer: Its MLM activity is 72.

Question: What about the EC50 ([1]; read-out: EC50 (mean ± SEM) for pYap/tYap) of the same compound?
Answer: Its EC50 is 0.0408 ± 0.0045 µM.

Question: And the EC50 ([1]; HEK293A cells, value printed in Fig. 1A, read-out: pYAP EC50)?
Answer: Its EC50 is 0.01 µM.

Question: What about the “apoptosis by labeling for activated caspase 3” value [7] of the same compound?
Answer: Its value is “little apoptosis”.

Question: And the “EdU-labeled cardiomyocytes at high magnification” value ([9]; 100 mg/kg i.p. two or three days after cryolesion)?
Answer: Its value is “numerous labeled cardiomyocytes”.

Question: What about the “density of EdU-labeled cells, Specimen 1 (mean ± SD)” value ([9]; 14 images, treated animal) of the same compound?
Answer: Its value is 15.2 ± 3.0 mm-2.

Question: What about the “density of EdU-labeled cells, Specimen 2 (mean ± SD)” value ([9]; 19 images, treated animal) of the same compound?
Answer: The value was 18.3 ± 3.4 mm-2.

Question: What about the average density of EdU labeling (mean ± SD) ([9]; two animals treated for 3 d, 100 mg/kg i.p., 33 images from 13 sections, controls 5.6 ± 2.1) of the same compound?
Answer: Its average density of EdU labeling (mean ± SD) is 17 ± 3.5 mm^-2.

Question: And the IC50 [2]?
Answer: Its IC50 is 0.00076 µM.

Question: What about the true inhibitory activities [2] of the same compound?
Answer: Its true inhibitory activities is “lower than 1 nM”.

Question: And the “pYap in liver, heart and skin” value ([10]; 50 mg/kg, after 4 h)?
Answer: The value was “no longer diminished pYap significantly in any organ”.

Question: And the “dephosphorylation of Yap in the liver and heart” value ([10]; 100 mg/kg, through 4 h)?
Answer: Its value is “maintained the dephosphorylation of Yap”.

Question: What about the “dephosphorylation of Yap in the skin” value ([10]; 100 mg/kg, through 4 h) of the same compound?
Answer: The value was “failed to do so”.

Question: What about the pYap levels ([10]; 200 mg/kg intraperitoneal, by eight hours) of the same compound?
Answer: The pYap levels was “returned to their baseline levels”.

Question: What about the “pYap relative to total Yap in heart, liver and skin” value ([10]; 200 mg/kg intraperitoneal, two or four hours after injection) of the same compound?
Answer: The value was “remarkable reduction”.

Question: And the “pYap in liver, heart and skin” value ([10]; 200, 100 and 50 mg/kg, within 2 h of injection)?
Answer: Its value is “profound reductions of pYap”.

Question: What about the “duration of Lats inhibition in the liver, heart, and skin” value ([10]; injection of 200 mg/kg) of the same compound?
Answer: The value was “over 4 h”.

Question: And the “Amotl2 expression, Heart, Treated” value [11, 13]?
Answer: Its value is 11.53 ± 0.13 rLog.

Question: And the “Ccn1 expression, Heart, Treated” value [11, 13]?
Answer: The value was 11.46 ± 0.29 rLog.

Question: And the “Ccn2 expression, Heart, Treated” value [11, 13]?
Answer: Its value is 14.02 ± 0.14 rLog.

Question: And the “Myc expression, Heart, Treated” value [11, 13]?
Answer: The value was 8.15 ± 0.10 rLog.

Question: And the “gene set-enrichment of genes characteristically activated upon Yap expression” value ([11]; liver and heart, 4 h after 200 mg/kg)?
Answer: The value was “significant enrichment”.

Question: What about the “damage in the organs examined (gene set-enrichment for inflammation and apoptosis terms)” value ([11]; liver and heart, 4 h treatment in vivo, 200 mg/kg) of the same compound?
Answer: Its value is “did not elicit significant damage”.

Question: And the “Amotl2 expression, Liver, Treated” value [11, 14]?
Answer: Its value is 10.21 ± 0.07 rLog.

Question: What about the “Ccn1 expression, Liver, Treated” value [11, 14] of the same compound?
Answer: Its value is 9.50 ± 0.27 rLog.

Question: And the “Ccn2 expression, Liver, Treated” value [11, 14]?
Answer: The value was 10.55 ± 0.33 rLog.

Question: What about the “Myc expression, Liver, Treated” value [11, 14] of the same compound?
Answer: Its value is 10.67 ± 0.23 rLog.

Question: What about the “survival and ill effects” value ([12]; both, Swiss Webster, mouse, in vivo, ip, 100 mg/kg, 2 wk) of the same compound?
Answer: Its value is “survival of all the mice for 2 wk with no apparent ill effects”.

Question: And the “toxicity of systemic administration in young mice” value ([12]; young mice, intraperitoneal injection)?
Answer: The value was “lethality related to intraperitoneal injection”.

Source: publication PMC9282237, “Development of an improved inhibitor of Lats kinases to promote regeneration of mammalian organs” (Proceedings of the National Academy of Sciences of the …, 2022)
